Experimental data reported in patent US20260335323A1, “CHIMERIC MOLECULE” (UCL Business Ltd, priority 2023, published 2026).

What was measured:
ULK1 = molecular target: T1, ULK1 (Homo sapiens, UniProt O75385); assay: in vitro kinase assay measuring ATP consumption; assay type: biochemical; settings: versus BL-918
T1 sequence (O75385 1-1050): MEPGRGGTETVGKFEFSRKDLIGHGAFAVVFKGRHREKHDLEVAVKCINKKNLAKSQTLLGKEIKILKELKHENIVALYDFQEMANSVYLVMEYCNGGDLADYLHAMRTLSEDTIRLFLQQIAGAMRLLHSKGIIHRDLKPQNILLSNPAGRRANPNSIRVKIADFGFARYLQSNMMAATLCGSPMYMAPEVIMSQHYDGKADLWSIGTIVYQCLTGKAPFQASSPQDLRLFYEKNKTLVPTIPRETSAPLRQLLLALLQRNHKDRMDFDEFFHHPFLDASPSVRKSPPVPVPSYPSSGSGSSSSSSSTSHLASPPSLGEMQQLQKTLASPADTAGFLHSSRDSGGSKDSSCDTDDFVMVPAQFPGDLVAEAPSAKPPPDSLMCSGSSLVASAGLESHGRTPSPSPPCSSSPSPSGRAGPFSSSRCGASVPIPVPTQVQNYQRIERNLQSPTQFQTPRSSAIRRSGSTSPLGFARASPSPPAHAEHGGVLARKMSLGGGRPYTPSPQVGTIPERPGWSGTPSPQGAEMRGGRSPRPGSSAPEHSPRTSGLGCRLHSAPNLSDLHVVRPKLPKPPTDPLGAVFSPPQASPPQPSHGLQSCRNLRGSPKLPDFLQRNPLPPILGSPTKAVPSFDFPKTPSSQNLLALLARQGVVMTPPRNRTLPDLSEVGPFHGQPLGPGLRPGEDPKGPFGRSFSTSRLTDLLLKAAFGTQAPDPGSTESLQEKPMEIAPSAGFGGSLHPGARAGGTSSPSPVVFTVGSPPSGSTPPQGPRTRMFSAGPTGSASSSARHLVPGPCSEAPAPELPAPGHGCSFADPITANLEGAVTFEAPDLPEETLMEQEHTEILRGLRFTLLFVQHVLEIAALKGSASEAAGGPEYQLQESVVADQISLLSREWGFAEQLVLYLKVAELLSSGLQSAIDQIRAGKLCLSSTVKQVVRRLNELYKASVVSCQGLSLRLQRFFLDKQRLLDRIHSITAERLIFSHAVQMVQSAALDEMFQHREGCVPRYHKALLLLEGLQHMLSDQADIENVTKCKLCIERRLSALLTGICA
Source text: Next, we designed a chimeric compound composed of a BL-918 derivative (referred to as NZ-60 herein) as our autophagy activator linked to the TSPO ligand as our targeting warhead to the outer mitochondrial membrane, utilising Huisgen-Sharpless click chemistry for the key linkage step^38-41. We designed a chemical synthesis route in 9 steps to produce two ULKTACs, NZ-65 and NZ-66. NZ-65 employs a polyethylene glycol (PEG) linker while NZ-66 uses a six carbon hexane linker (FIG. 3A). The resulting molecules were >99% pure as verified by LCMS. […] Importantly, key interactions shown to be necessary for the activation of ULK1 in its kinase domain, namely, Arg18, Lys50, Asn86 and Tyr89^8, appear to be maintained.

H1299 cells = assay: Cell viability assay (CellTiter Glo), H1299; assay type: cell-based, human; settings: H1299, increasing concentrations
Protocol: A549 and H1299 cells were seeded in OptiPlate-384 well plates and treated with increasing concentrations of (+)-JQ1 or NZ-147 from 0 μM to 10 µM in Example 8 and with increasing concentrations of NZ-175 from 0 µM to 10 µM in Example 9. Cells were treated for 120 h before using the luciferase based CellTiter Glo assay (Promega) to measure cell viability.
Cell viability assay was performed in A549 and H1299 cells, which were treated with different concentrations of (+)-JQ1 or NZ-147 at 100 nM for 72 hours (FIG. 10B).
Cell viability assay was performed in A549 and H1299 cells, which were treated with different concentrations of NZ-147 at 100 nM for 72 hours (FIG. 16B).

c-MYC controlled genes = assay: RT-qPCR of c-MYC controlled genes in CAL51 cells; assay type: cell-based, human; settings: 100 nM, 72 hours, vs (+)-JQ1 at equivalent concentration and duration
Protocol: FIG. 11. RT-qPCR quantification of expression of c-MYC controlled genes in CAL51 triple negative breast cancer cell line treated with DMSO, 100 nM (+)-JQ1 or 100 nM NZ-147 for 72 hours. […] MDM2 (A) and CCNE (B) are controlled by cMYC in oncogenic settings, PAICS (C) is a putative target of c-MYC, and eIF4E (D) is a known target of cMYC. n=3, *p<0.05, ** p<0.01, *** p<0.001.
RNA was extracted with the Qiagen RNeasy Mini kit following manufacturers protocol. RT-qPCR SYBR assay was carried out with Mesa Blue following manufacturers instructions, 80 ng RNA per well, experimental triplicates, BioRad CTX Connect qPCR machine. RNA levels were normalized to GAPDH. Experiments were done in biological triplicate. The primers used were as follows:
The levels of c-MYC controlled genes (determined using RT-qPCR) in CAL51 triple negative breast cancer cell line after treatment with DMSO, 100 nM (+)-JQ1 or 100 nM NZ-147 for 72 hours is shown in FIG. 11. In particular MDM2 (FIG. 11A) and CCNE (FIG. 11B) are controlled by cMYC in oncogenic settings, PAICS (FIG. 11C) is a putative target of c-MYC, and elF4E (FIG. 11D) is a known target of c-MYC.

| SMILES | activation of ULK1 vs BL-918 (ULK1) | percentage of live cells (H1299 cells) | impact on c-MYC controlled genes vs (+)-JQ1 (c-MYC controlled genes) |
| --- | --- | --- | --- |
| O=C(Nc1cc(C(F)(F)F)cc(C(F)(F)F)c1)N[C@@H](C(=O)Nc1ccc(F)cc1F)c1ccc(OCc2cn(CCOCCOCCNC(=O)C(=O)c3c(-c4ccccc4)[nH]c4ccccc34)nn2)cc1 [NZ-65, (R)-2-(3-(3,5-bis(trifluoromethyl)phenyl)ureido)-N-(2,4-difluorophenyl)-2-(4-((1-(2-(2-(2-(2-oxo-2-(2-phenyl-1H-indol-3-yl)acetamido)ethoxy)ethoxy)ethyl)-1H-1,2,3-triazol-4-yl)methoxy)phenyl) acetamide] | comparable activity | – | – |
| O=C(Nc1cc(C(F)(F)F)cc(C(F)(F)F)c1)N[C@@H](C(=O)Nc1ccc(F)cc1F)c1ccc(OCc2cn(CCCCCCNC(=O)C(=O)c3c(-c4ccccc4)[nH]c4ccccc34)nn2)cc1 [NZ-66, (R)-2-(3-(3,5-bis(trifluoromethyl)phenyl)ureido)-N-(2,4-difluorophenyl)-2-(4-((1-(6-(2-oxo-2-(2-phenyl-1H-indol-3-yl)acetamido)hexyl)-1H-1,2,3-triazol-4-yl)methoxy)phenyl) acetamide] | comparable activity | – | – |
| Cc1sc2c(c1C)C(c1ccc(Cl)cc1)=N[C@@H](CC(=O)NCCOCCOCCOCCn1cc(COc3ccc([C@@H](NC(=O)Nc4cc(C(F)(F)F)cc(C(F)(F)F)c4)C(=O)Nc4ccc(F)cc4F)cc3)nn1)c1nnc(C)n1-2 [NZ-147, (R)-2-(3-(3,5-bis(trifluoromethyl)phenyl)ureido)-2-(4-((1-(1-((S)-4-(4-chlorophenyl)-2,3,9-trimethyl-6H-thieno[3,2-f][1,2,4]triazolo[4,3-a][1,4]diazepin-6-yl)-2-oxo-6,9, 12-trioxa-3-azatetradecan-14-yl)-1H-1,2,3-triazol-4-yl)methoxy)phenyl)-N-(2,4-difluorophenyl) acetamide] | – | dose-dependent decrease in the percentage of live cells | significantly more profound impact |
